# Assay results reported in publication PMC9270327 (Communications Biology, 2022).
# Several values for one entry are separate records, joined by “and”; a condition that tells them apart may be missing. Identical values can stand only once. Counter-ions that a name gives are not always drawn. Like-named read-outs stand apart in the source and are kept apart here.
# How the values were obtained:
# TMPRSS2 [1] = target: T1, TMPRSS2 (Homo sapiens, UniProt O15393); assay: Cell culture medium stability: residual TMPRSS2 inhibition after incubation in medium
# T1 sequence (O15393 whole entry): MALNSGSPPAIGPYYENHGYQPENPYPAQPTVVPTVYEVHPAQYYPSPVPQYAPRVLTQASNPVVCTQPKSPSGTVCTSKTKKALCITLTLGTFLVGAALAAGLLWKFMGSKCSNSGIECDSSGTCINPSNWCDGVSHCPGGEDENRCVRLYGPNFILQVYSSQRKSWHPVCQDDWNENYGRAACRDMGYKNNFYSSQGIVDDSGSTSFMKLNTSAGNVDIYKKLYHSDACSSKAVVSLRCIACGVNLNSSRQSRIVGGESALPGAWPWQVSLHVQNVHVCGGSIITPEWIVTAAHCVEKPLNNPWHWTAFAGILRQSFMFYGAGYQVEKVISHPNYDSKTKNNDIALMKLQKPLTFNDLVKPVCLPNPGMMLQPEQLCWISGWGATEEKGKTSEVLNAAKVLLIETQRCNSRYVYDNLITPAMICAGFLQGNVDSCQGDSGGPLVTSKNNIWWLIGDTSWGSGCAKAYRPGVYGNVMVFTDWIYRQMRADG
# Experimental: (§1) The activity of the compounds against the recombinant human enzymes was determined in enzyme inhibition assays. […] The measurements were performed on a Tecan infinite® M1000 and the fluorescence intensity was measured by exciting the AMC fluorophore at 380 nm wavelength and recording emission at 460 nm wavelength. […] Fluorescence intensities and absorption were measured every 2 min for 2 h or as endpoint after 2 h. […] To determine the IC50 values, the concentration-response data were plotted with the program GraphPad prism version 8.4.2 (San Diego, California) and a nonlinear regression fit with the equation [Inhibitor] vs. normalized response was applied. The inhibitory constant Ki was calculated from the IC50 values using the Cheng–Prusoff equation (Ki = IC50/[S]/KM) for competitive reversible inhibitors[66].
# (§2) The stability of the inhibitors was measured according to a modified procedure from ref. [67]. […] At indicated timepoints, 100 µL samples were taken and mixed with 200 µL of ethanol to precipitate proteins. […] The supernatant was aspirated and analyzed using analytical HPLC. The residual inhibitory constants Ki after incubation was assessed by mixing serial dilutions of the inhibitor with recombinant TMPRSS2 as described above.
# were mixed with recombinant TMPRSS2, followed by the addition of the fluorogenic reference
# Shown are the means ± SD of n=1 experiment performed in triplicates.
# TMPRSS2 [2] = target: T1, TMPRSS2
# Experimental: Negative ctrl: no inhibitor, positive ctrl: inhibitor in assay buffer. d Inhibitory constants Ki as determined from (a–c). Shown are the means ± SD of n = 1 experiment performed in triplicates. No inh. no inhibition.
# as §1, §2
# [3] = system: lentiviral pseudoparticles carrying SARS-CoV-2 Omicron BA.1 (B.1.1.529) spike, Caco-2 cells; assay type: cell-based
# [4] = system: lentiviral pseudoparticles carrying SARS-CoV-2 Wuhan-Hu-1 spike, Caco-2 cells; assay type: cell-based
# [5] = system: lentiviral pseudoparticles carrying SARS-CoV-2 Delta (B.1.617.2) spike, Caco-2 cells; assay type: cell-based; details: for SARS-CoV-2 spike driven entry, Mean (0 nM = 100): Fig. 5d
# [6] = inhibitor 166.5 nM, positive ctrl
# [7] = inhibitor 1665 nM, positive ctrl
structure (smiles),measurement,setting,value
"CN(C)C(=O)COC(=O)Cc1ccc(OC(=O)c2ccc(NC(=N)N)cc2)cc1 [CM, camostat mesylate, reference compound]","Residual TMPRSS2 activity, Mean (0 nM = 100)","TMPRSS2 [1]; inhibitor 166.5 nM, 120 min in cell culture medium",-2.5978
same,"Residual TMPRSS2 activity, Mean (0 nM = 100)","TMPRSS2 [1]; inhibitor 166.5 nM, 24 h in cell culture medium",5.263
same,"Residual TMPRSS2 activity, Mean (0 nM = 100)","TMPRSS2 [1]; inhibitor 166.5 nM, 10 d in cell culture medium",97.9296
same,"Residual TMPRSS2 activity, Mean (0 nM = 100)",TMPRSS2 [1]; [6],-2.042
same,"Residual TMPRSS2 activity, Mean (0 nM = 100)","TMPRSS2 [1]; inhibitor 1665 nM, 0 min in cell culture medium",-4.334
same,"Residual TMPRSS2 activity, Mean (0 nM = 100)","TMPRSS2 [1]; inhibitor 1665 nM, 30 min in cell culture medium",-4.917
same,"Residual TMPRSS2 activity, Mean (0 nM = 100)","TMPRSS2 [1]; inhibitor 1665 nM, 60 min in cell culture medium",-4.534
same,"Residual TMPRSS2 activity, Mean (0 nM = 100)","TMPRSS2 [1]; inhibitor 1665 nM, 120 min in cell culture medium",-4.182
same,"Residual TMPRSS2 activity, Mean (0 nM = 100)","TMPRSS2 [1]; inhibitor 1665 nM, 24 h in cell culture medium",0.9545
same,"Residual TMPRSS2 activity, Mean (0 nM = 100)","TMPRSS2 [1]; inhibitor 1665 nM, 10 d in cell culture medium",88.1928
same,"Residual TMPRSS2 activity, Mean (0 nM = 100)",TMPRSS2 [1]; [7],-4.2458
same,residual inhibitory activity against TMPRSS2 after incubation in body fluids,"TMPRSS2 [2]; human serum / plasma, up to 10 days",inactive
same,reduction of activity against TMPRSS2 upon addition to serum,TMPRSS2 [2]; immediately after addition to human serum,around 60 fold
same,"TMPRSS2 activity, Mean (0 nM = 100)","TMPRSS2 [2]; inhibitor 0.0167 nM, 0 min in serum",97.0909
same,"TMPRSS2 activity, Mean (0 nM = 100)","TMPRSS2 [2]; inhibitor 0.0167 nM, 30 min in serum",98.7509
same,"TMPRSS2 activity, Mean (0 nM = 100)","TMPRSS2 [2]; inhibitor 0.0167 nM, 60 min in serum",96.1122
same,"TMPRSS2 activity, Mean (0 nM = 100)","TMPRSS2 [2]; inhibitor 0.0167 nM, 120 min in serum",96.1122
same,"TMPRSS2 activity, Mean (0 nM = 100)","TMPRSS2 [2]; inhibitor 0.0167 nM, 24 h in serum",109.9729
same,"TMPRSS2 activity, Mean (0 nM = 100)","TMPRSS2 [2]; inhibitor 0.0167 nM, 10 d in serum",104.3134
same,"TMPRSS2 activity, Mean (0 nM = 100)","TMPRSS2 [2]; inhibitor 0.0167 nM, positive ctrl",91.4692
same,"TMPRSS2 activity, Mean (0 nM = 100)","TMPRSS2 [2]; inhibitor 0.167 nM, 0 min in serum",95.7227
same,"TMPRSS2 activity, Mean (0 nM = 100)","TMPRSS2 [2]; inhibitor 0.167 nM, 30 min in serum",96.8742
same,"TMPRSS2 activity, Mean (0 nM = 100)","TMPRSS2 [2]; inhibitor 0.167 nM, 60 min in serum",95.2722
same,"TMPRSS2 activity, Mean (0 nM = 100)","TMPRSS2 [2]; inhibitor 0.167 nM, 120 min in serum",95.2722
same,"TMPRSS2 activity, Mean (0 nM = 100)","TMPRSS2 [2]; inhibitor 0.167 nM, 24 h in serum",109.0078
same,"TMPRSS2 activity, Mean (0 nM = 100)","TMPRSS2 [2]; inhibitor 0.167 nM, 10 d in serum",107.9350
same,"TMPRSS2 activity, Mean (0 nM = 100)","TMPRSS2 [2]; inhibitor 0.167 nM, positive ctrl",67.2760
same,"TMPRSS2 activity, Mean (0 nM = 100)","TMPRSS2 [2]; inhibitor 1.665 nM, 0 min in serum",91.6733
same,"TMPRSS2 activity, Mean (0 nM = 100)","TMPRSS2 [2]; inhibitor 1.665 nM, 30 min in serum",104.2530
same,"TMPRSS2 activity, Mean (0 nM = 100)","TMPRSS2 [2]; inhibitor 1.665 nM, 60 min in serum",90.9967
same,"TMPRSS2 activity, Mean (0 nM = 100)","TMPRSS2 [2]; inhibitor 1.665 nM, 120 min in serum",90.9967
same,"TMPRSS2 activity, Mean (0 nM = 100)","TMPRSS2 [2]; inhibitor 1.665 nM, 24 h in serum",110.5140
same,"TMPRSS2 activity, Mean (0 nM = 100)","TMPRSS2 [2]; inhibitor 1.665 nM, 10 d in serum",105.0630
same,"TMPRSS2 activity, Mean (0 nM = 100)","TMPRSS2 [2]; inhibitor 1.665 nM, positive ctrl",16.5425
same,"TMPRSS2 activity, Mean (0 nM = 100)","TMPRSS2 [2]; inhibitor 16.65 nM, 0 min in serum",58.3113
same,"TMPRSS2 activity, Mean (0 nM = 100)","TMPRSS2 [2]; inhibitor 16.65 nM, 30 min in serum",66.2869
same,"TMPRSS2 activity, Mean (0 nM = 100)","TMPRSS2 [2]; inhibitor 16.65 nM, 60 min in serum",73.7709
same,"TMPRSS2 activity, Mean (0 nM = 100)","TMPRSS2 [2]; inhibitor 16.65 nM, 120 min in serum",73.7709
same,"TMPRSS2 activity, Mean (0 nM = 100)","TMPRSS2 [2]; inhibitor 16.65 nM, 24 h in serum",114.2941
same,"TMPRSS2 activity, Mean (0 nM = 100)","TMPRSS2 [2]; inhibitor 16.65 nM, 10 d in serum",105.5411
same,"TMPRSS2 activity, Mean (0 nM = 100)","TMPRSS2 [2]; inhibitor 16.65 nM, positive ctrl",3.2273
same,"TMPRSS2 activity, Mean (0 nM = 100)","TMPRSS2 [2]; inhibitor 166.5 nM, 0 min in serum",7.4453
same,"TMPRSS2 activity, Mean (0 nM = 100)","TMPRSS2 [2]; inhibitor 166.5 nM, 30 min in serum",7.7321
same,"TMPRSS2 activity, Mean (0 nM = 100)","TMPRSS2 [2]; inhibitor 166.5 nM, 60 min in serum",7.7056
same,"TMPRSS2 activity, Mean (0 nM = 100)","TMPRSS2 [2]; inhibitor 166.5 nM, 120 min in serum",7.7056
same,"TMPRSS2 activity, Mean (0 nM = 100)","TMPRSS2 [2]; inhibitor 166.5 nM, 24 h in serum",43.5256
same,"TMPRSS2 activity, Mean (0 nM = 100)","TMPRSS2 [2]; inhibitor 166.5 nM, 10 d in serum",104.8964
same,"TMPRSS2 activity, Mean (0 nM = 100)",TMPRSS2 [2]; [6],1.7660
same,"TMPRSS2 activity, Mean (0 nM = 100)","TMPRSS2 [2]; inhibitor 1665 nM, 0 min in serum",2.9461
same,"TMPRSS2 activity, Mean (0 nM = 100)","TMPRSS2 [2]; inhibitor 1665 nM, 30 min in serum",4.0032
same,"TMPRSS2 activity, Mean (0 nM = 100)","TMPRSS2 [2]; inhibitor 1665 nM, 60 min in serum",3.9955
same,"TMPRSS2 activity, Mean (0 nM = 100)","TMPRSS2 [2]; inhibitor 1665 nM, 120 min in serum",3.9955
same,"TMPRSS2 activity, Mean (0 nM = 100)","TMPRSS2 [2]; inhibitor 1665 nM, 24 h in serum",8.1597
same,"TMPRSS2 activity, Mean (0 nM = 100)","TMPRSS2 [2]; inhibitor 1665 nM, 10 d in serum",96.3530
same,"TMPRSS2 activity, Mean (0 nM = 100)",TMPRSS2 [2]; [7],2.6461
same,"SARS-CoV-2 spike driven entry, Mean (0 nM = 100)",[3],47.6902 and 69.3145 and 95.2747
same,IC50,"[3]; Caco-2 cells, luciferase 2 days post transduction, read-out: IC50 pseudotyped lentivirus Omicron BA.1",77.6 nM
same,"SARS-CoV-2 spike driven entry, Mean (0 nM = 100)","[3]; Fig. 5e, compound 400 nM, […]",26.7078
same,"SARS-CoV-2 spike driven entry, Mean (0 nM = 100)","[3]; Fig. 5e, compound 2000 nM, […]",11.5722
same,"SARS-CoV-2 spike driven entry, Mean (0 nM = 100)","[3]; Fig. 5e, compound 10000 nM, […]",6.102
same,"SARS-CoV-2 spike driven entry, Mean (0 nM = 100)","[3]; Fig. 5e, compound 50000 nM, […]",4.574
same,"SARS-CoV-2 spike driven entry, Mean (0 nM = 100)",[4],90.0332
same,IC50,"[4]; Caco-2 cells, luciferase 2 days post transduction, read-out: IC50 pseudotyped lentivirus Wuhan-Hu-1",748 nM and ~748 nM
same,"SARS-CoV-2 spike driven entry, Mean (0 nM = 100)","[4]; Fig. 5a, compound 160 nM, […]",75.4652
same,"SARS-CoV-2 spike driven entry, Mean (0 nM = 100)","[4]; Fig. 5a, compound 800 nM, […]",52.9188
same,"SARS-CoV-2 spike driven entry, Mean (0 nM = 100)","[4]; Fig. 5a, compound 4000 nM, […]",17.6822
same,"SARS-CoV-2 spike driven entry, Mean (0 nM = 100)","[4]; Fig. 5a, compound 20000 nM, […]",3.857
same,"SARS-CoV-2 spike driven entry, Mean (0 nM = 100)","[4]; Fig. 5a, compound 100000 nM, […]",2.478
same,IC50,"[5]; Caco-2 cells, luciferase 2 days post transduction, read-out: IC50 pseudotyped lentivirus Delta",85.5 nM
same,"SARS-CoV-2 spike driven entry, Mean (0 nM = 100)",[5]; compound 3.2 nM,83.3031
same,"SARS-CoV-2 spike driven entry, Mean (0 nM = 100)",[5]; compound 16 nM,73.1168
same,"SARS-CoV-2 spike driven entry, Mean (0 nM = 100)",[5]; compound 80 nM,52.0145
same,"SARS-CoV-2 spike driven entry, Mean (0 nM = 100)",[5]; compound 400 nM,29.5018
same,"SARS-CoV-2 spike driven entry, Mean (0 nM = 100)",[5]; compound 2000 nM,11.0315
same,"SARS-CoV-2 spike driven entry, Mean (0 nM = 100)",[5]; compound 10000 nM,3.058
same,"SARS-CoV-2 spike driven entry, Mean (0 nM = 100)",[5]; compound 50000 nM,0.6818
